Among the data in patent publication US12344610B2, “APOL1 inhibitors and methods of use” (Maze Therapeutics, Inc., priority 2022, dated 2025) are EC50 and AC50 values, retold here.

Holding throughout (assay type): cell-based
The subject of assay [1] is HEK293 cells overexpressing APOL1 G2. Put plainly: APOL1 G2 HEK293 cell rescue assay (reversal of cell death caused by overexpression of APOL1). The settings on record: Homo sapiens, HEK293, HEK293 overexpressing APOL1 G2; geometric mean of at least 2 assay runs; † = single assay run. The method in brief: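 Each compound tested in duplicate wells on one plate per run, with values usually the geometric mean across at least two runs on different days, occasionally from one run only. Read-out: concentration giving half-maximal rescue of APOL1 G2 overexpression-induced death of HEK293 cells.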

For assay [2], the system named is HEK293 clonal cell line overexpressing APOL1 G1. The assay is described as follows: APOL1 G1 HEK293 cell rescue assay (Example B3). As to conditions: Homo sapiens, HEK293, HEK293 clonal line overexpressing APOL1 G1; geometric mean of at least 2 runs; † = single run; ¥ = concentration at 50% rescue estimated (no sigmoidal curve). In outline:
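Rescue of cell death caused by APOL1 G1 overexpression was measured in a clonal HEK293 line. Compounds were tested in duplicate on one plate, and EC50s were geometric means across at least two runs on different days. Some values are estimated 50%-rescue concentrations where curve fitting failed.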

A further assay deals with T1, APOL1 G2 (Homo sapiens, UniProt O14791, DEL388-389).
T1 construct: expressed in transfected cells; host or cells: HEK293 T-REx clonal line stably expressing GCaMP6f (HEK T-REx/GCaMP6f/APOL1 G2 K6.3), doxycycline induced
T1 sequence (O14791 with tags, fused parts or gaps DEL388-389): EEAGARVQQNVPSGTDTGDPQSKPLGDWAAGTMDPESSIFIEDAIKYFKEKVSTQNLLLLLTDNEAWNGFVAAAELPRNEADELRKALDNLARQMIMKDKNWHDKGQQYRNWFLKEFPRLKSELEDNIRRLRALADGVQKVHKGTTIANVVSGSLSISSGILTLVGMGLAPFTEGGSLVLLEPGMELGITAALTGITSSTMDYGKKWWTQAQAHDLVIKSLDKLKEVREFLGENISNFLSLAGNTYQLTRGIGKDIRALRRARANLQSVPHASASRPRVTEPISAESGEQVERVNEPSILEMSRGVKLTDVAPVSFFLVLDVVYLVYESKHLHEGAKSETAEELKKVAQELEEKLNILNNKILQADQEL
The assay is described as follows: APOL1-mediated calcium transport (calcium influx) assay, HEK T-REx/GCaMP6f/APOL1 G2 K6.3 cells, FLIPR TETRA. As to conditions: prevention of calcium influx; geometric mean of at least 2 assay runs; † = average of a technical replicate from a single assay run. In outline: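 A HEK293 T-REx clone stably expressing GCaMP6f had APOL1 G2 induced with doxycycline (20 ng/mL solution added) for 6 h. Cells were then washed into Ca2+-free Tyrode's buffer (pH 7.4) and preincubated with compounds (duplicate 8-point) for 10 min at room temperature. Ca2+ injection to 5 mM final produced FLIPR GCaMP fluorescence, giving AC50 for influx inhibition (geometric mean, ≥2 runs).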

One may read the EC50 as the concentration that produces a half-maximal response. Broadly, the AC50 is the midpoint of the concentration-response curve, whichever way the signal moves. For `CS(=O)(=O)c1ccc(OCCN2CCC3(CC2)C(=O)Nc2ccc(Cl)cc23)c(F)c1` [Compound 48, 5-chloro-1′-[2-(2-fluoro-4-methanesulfonylphenoxy)ethyl]-1,2-dihydrospiro[indole-3,4′-piperidin]-2-one], the EC50 in assay [1] is 199 nM; in assay [2], 445 nM. The concentration at half-maximal activity (AC50) on APOL1 G2 turned out to be 567 nM.

Take `N#Cc1ccc2c(c1)C1(CCN(CCOc3ccc4c(c3)CCN3C(=O)CCC43)CC1)C(=O)N2` (stereo not drawn) [Compound 124, 2-oxo-1′-[2-({3-oxo-1H,2H,3H,5H,6H,10bH-pyrrolo[2,1-a]isoquinolin-8-yl}oxy)ethyl]-1,2-dihydrospiro[indole-3,4′-piperidine]-5-carbonitrile]: the EC50 is 297 nM in assay [1] and 920 nM in assay [2]. In addition, the half-maximal activity concentration (AC50) on APOL1 G2 is 727 nM.

Consider `CC(=O)N1CCc2cc(OCCN3CCC4(CC3)C(=O)N(C)c3ccccc34)ccc2C1` [Compound 58, 1′-{2-[(2-acetyl-1,2,3,4-tetrahydroisoquinolin-6-yl)oxy]ethyl}-1-methyl-1,2-dihydrospiro[indole-3,4′-piperidin]-2-one], for which the values for the EC50 in assay [1] and in assay [2] were 1310 nM and 2120 nM, respectively. For the same compound, at APOL1 G2, the AC50 is less than 320 nM.

In the case of `CN1C(=O)C2(CCN(CCOc3ccc(-c4cnn(C)c4)cc3)CC2)c2ccccc21` [Compound 31, 1-methyl-1′-{2-[4-(1-methyl-1H-pyrazol-4-yl)phenoxy]ethyl}-1,2-dihydrospiro[indole-3,4′-piperidin]-2-one], the concentration giving a half-maximal response (EC50) in assay [1] is 810 nM; in assay [2], 1570 nM. Besides, the AC50 on APOL1 G2 turned out to be 370 nM.

Consider `CC(=O)N1CCCc2cc(OCCN3CCC4(CC3)C(=O)Nc3ccc(C#N)cc34)ccc21` [Compound 59, 1′-{2-[(1-acetyl-1,2,3,4-tetrahydroquinolin-6-yl)oxy]ethyl}-2-oxo-1,2-dihydrospiro[indole-3,4′-piperidine]-5-carbonitrile], for which the values for the EC50 in assay [1] and in assay [2] were 213 nM and 422 nM, respectively. Also, at APOL1 G2, the concentration at half-maximal activity (AC50) was 879 nM.

Turning to `N#Cc1ccc2c(c1)C1(CCN(CCOc3ccc(C4CCCS4(=O)=O)cc3)CC1)C(=O)N2` (stereo not drawn) [Compound 178, 1′-{2-[4-(1,1-dioxo-1λ^6-thiolan-2-yl)phenoxy]ethyl}-2-oxo-1,2-dihydrospiro[indole-3,4′-piperidine]-5-carbonitrile], the EC50 in assay [1] is 256 nM; in assay [2] it was 1190 nM. The concentration at half-maximal activity (AC50) at APOL1 G2 is 550 nM.

`[2H]C([2H])(Oc1cc(C(F)(F)F)c2c(c1)ncn2[C@H]1C[C@@](C)(O)C1)C([2H])([2H])N1CCC2(CC1)C(=O)Nc1ccc(Cl)cc12` [Compound 463, 5-chloro-1′-[2-({1-[(cis)-3-hydroxy-3-methylcyclobutyl]-7-(trifluoromethyl)-1H-1,3-benzodiazol-5-yl}oxy)(1,1,2,2-^2H4)ethyl]-1,2-dihydrospiro[indole-3,4′-piperidin]-2-one]: the EC50 in assay [1] is 5.84 nM; in assay [2] it was 13.2 nM. Further, the concentration at half-maximal activity (AC50) at APOL1 G2 worked out at 2840 nM.

On to `C[C@]1(O)C[C@@H](N2C(=O)NCc3cc(OCCN4CCC5(CC4)C(=O)Nc4ccc(Cl)cc45)cc(C(F)(F)F)c32)C1` [Compound 456, 5-chloro-1′-[2-({2-oxo-1-[(cis)-3-hydroxy-3-methylcyclobutyl]-8-(trifluoromethyl)-1,2,3,4-tetrahydroquinazolin-6-yl}oxy)ethyl]-1,2-dihydrospiro[indole-3,4′-piperidin]-2-one], for which the EC50 was 28.2 nM in assay [1] and 98.2 nM in assay [2]. For the same compound, at APOL1 G2, the AC50 worked out at 1010 nM.

Take `CN1C(=O)C2(CCN(CCOc3ccc(S(C)(=O)=O)cc3)CC2)c2ccccc21` [Compound 67, 1′-[2-(4-methanesulfonylphenoxy)ethyl]-1-methyl-1,2-dihydrospiro[indole-3,4′-piperidin]-2-one]: the values for the EC50 in assay [1] and in assay [2] were 802 nM and 2860 nM, respectively. Further, at APOL1 G2, the half-maximal activity concentration (AC50) was 351 nM.
